Results from ChEMBL document CHEMBL5055685, “Discovery of the First Potent IDO1/IDO2 Dual Inhibitors: A Promising Strategy for Cancer Immunotherapy” (J Med Chem, 2021).

Columns and labels:
[1] = biological target: T1, Indoleamine 2,3-dioxygenase 2 (Homo sapiens, UniProt Q6ZQW0); assay: Inhibition of IDO2 (unknown origin) assessed as reduction in kynurenine formation using L-tryptophan as substrate by methylene blue reagent based assay
T1 sequence (Q6ZQW0 whole entry): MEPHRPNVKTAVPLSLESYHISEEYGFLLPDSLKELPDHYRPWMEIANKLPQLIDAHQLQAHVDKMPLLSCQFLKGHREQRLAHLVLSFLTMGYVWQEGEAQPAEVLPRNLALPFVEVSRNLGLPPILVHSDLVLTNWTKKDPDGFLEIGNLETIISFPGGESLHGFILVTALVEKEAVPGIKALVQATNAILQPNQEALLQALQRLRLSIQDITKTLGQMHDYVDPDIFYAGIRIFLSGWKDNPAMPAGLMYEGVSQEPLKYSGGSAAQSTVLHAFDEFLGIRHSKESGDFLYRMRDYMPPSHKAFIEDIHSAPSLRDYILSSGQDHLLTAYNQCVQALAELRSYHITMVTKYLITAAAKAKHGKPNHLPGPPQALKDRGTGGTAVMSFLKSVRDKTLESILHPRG

[2] = biological target: T2, Indoleamine 2,3-dioxygenase 1 (Homo sapiens, UniProt P14902); assay: Inhibition of IDO1 (unknown origin) assessed as reduction in kynurenine formation using L-tryptophan as substrate by methylene blue reagent based assay
Target sequence in this assay (P14902 whole entry): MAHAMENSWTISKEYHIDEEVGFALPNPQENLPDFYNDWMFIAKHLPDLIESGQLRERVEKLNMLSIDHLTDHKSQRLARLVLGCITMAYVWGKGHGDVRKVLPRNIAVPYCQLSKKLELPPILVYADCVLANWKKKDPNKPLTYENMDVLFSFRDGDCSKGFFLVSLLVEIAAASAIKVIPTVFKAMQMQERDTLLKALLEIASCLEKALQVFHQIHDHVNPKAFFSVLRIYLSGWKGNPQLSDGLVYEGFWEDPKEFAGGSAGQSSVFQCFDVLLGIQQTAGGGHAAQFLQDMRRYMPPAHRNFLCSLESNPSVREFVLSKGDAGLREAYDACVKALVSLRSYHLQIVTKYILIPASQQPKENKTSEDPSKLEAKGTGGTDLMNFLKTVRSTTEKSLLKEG

[3] = Inhibition of IDO1/IDO2 in IFNgamma/LPS-stimulated human PBMCs assessed as reduction in kynurenine formation pretreated with compound for 15 mins followed by IFNgamma/LPS stimulation by LC-MS/MS analysis; assay type: tissue-based; details: PBMC
[4] = biological target: T2, Indoleamine 2,3-dioxygenase 1
Target sequence in this assay (P14902 whole entry): as above

[5] = biological target: T2, Indoleamine 2,3-dioxygenase 1; assay: Inhibition of IDO1 in IFNgamma-stimulated human HeLa cells assessed as reduction in kynurenine formation measured after 48 hrs by spectrophotometry
Target sequence in this assay (P14902 whole entry): as above

[6] = biological target: T3, Indoleamine 2,3-dioxygenase 2 (Homo sapiens) (UniProt Q6ZQW0); assay: Inhibition of IDO2 (unknown origin) assessed as reduction in kynurenine formation using L-tryptophan as substrate by methylene blue reagent based assay relative to control; parameters: concentration or dose not given beside the values; details: concentration not given here
T3 sequence (whole entry): T1 sequence (Q6ZQW0 whole entry)

[7] = biological target: T2, Indoleamine 2,3-dioxygenase 1; assay: Inhibition of IDO1 (unknown origin) assessed as reduction in kynurenine formation using L-tryptophan as substrate by methylene blue reagent based assay relative to control; parameters: concentration or dose not given beside the values; details: concentration not given here
Target sequence in this assay (P14902 whole entry, looked up): as the sequence (P14902 whole entry) above

| SMILES | IC50 [1] | IC50 [2] | other results |
| --- | --- | --- | --- |
| CC(OCCO)c1cn(CCNc2nonc2/C(=N/O)Nc2ccc(F)c(Br)c2)nn1 (stereo unspecified) | 930 nM | 134 nM | – |
| O/N=C(\Nc1ccc(F)c(Br)c1)c1nonc1NCCn1cc(C2(O)CCCCC2)nn1 | 865 nM | 62 nM | – |
| CCOC(=O)N1CCC2(CC1)C[C@H](NC(=O)c1cccc3cn[nH]c13)c1cc(Br)ccc1O2 | – | – | IC50 [3]: 5.4 nM |
| OCc1cn(CCNc2nonc2/C(=N/O)Nc2ccc(F)c(Br)c2)nn1 | 794 nM | 77 nM | – |
| C[C@]1([C@H](O)C[C@H]2c3c(F)cccc3-c3cncn32)CC[C@H](O)CC1 | – | – | IC50 [4]: 7 nM |
| CCOc1cc(CNC(=O)c2ncoc2-c2ccc(OC)cc2)cc(OCC)c1OCC | – | – | IC50 [5]: 6.3 nM |
| CC(C)CC(C)(O)c1cn(CCNc2nonc2/C(=N/O)Nc2ccc(F)c(Br)c2)nn1 (stereo unspecified) | 689 nM | 51 nM | – |
| CC(C)(C)c1cn(CCNc2nonc2/C(=N/O)Nc2ccc(F)c(Br)c2)nn1 | 1870 nM | 132 nM | – |
| O/N=C(\Nc1ccc(F)c(Br)c1)c1nonc1NCCn1cc(C2CC2)nn1 | – | – | inhibition [6]: 10%; inhibition [7]: 37% |
| COCc1cn(CCNc2nonc2/C(=N/O)Nc2ccc(F)c(Br)c2)nn1 | – | – | inhibition [6]: 7%; inhibition [7]: 20.5% |
| Nc1cccc(-c2cn(CCNc3nonc3/C(=N/O)Nc3ccc(F)c(Br)c3)nn2)c1 | – | – | inhibition [6]: 12%; inhibition [7]: 7% |
| OCCCCc1cn(CCNc2nonc2/C(=N/O)Nc2ccc(F)c(Br)c2)nn1 | 1080 nM | 80 nM | – |
